Laboratory results reported in patent US8552013B2, “Heterocyclic compounds based on N6-substituted adenine, methods of their preparation, their use for preparation of drugs, cosmetic preparations and growth regulators, pharmaceutical preparations, cosmetic preparations and growth regulators containing these compounds” (USTAV Experimentalni Botaniky Akademie Ved Ceske Republiky, priority 2001, dated 2013).
“Also recorded” adds a separate entry of the source.

What was measured:
[1] = tested on: Rosa hybrida (pot rose cultivar) explants; test: In vitro and post vitro shoot multiplication and rooting of rose; assay type: in vivo
Experimental: The aim of this experiment was to test whether the new compounds are of practical use in tissue culture practice. The multiplication rate was investigated and the post vitro effects on rooting were examined. Rosa hybrida (pot rose cultivar) was cultured in 350 ml vessels with a screw on polycarbonate lid. Each culture vessel contained 100 ml autoclaved medium (120° C., 20 min). The cultures were maintained at 23±2° C. under a 16 h photoperiod at 40 μM m^−2 s^−1 PAR. The basal medium (BMR) contained Murashige and Skoog (1962) macroelements, microelements and vitamins, 95 μM NaFeEDTA, 555 μM myo-inositol, 111 mM sucrose, 1.332 mM glycine, 684 μM L-glutamine and 7 g/l agar. This medium was supplemented with 10 μM BA, mT, oMeOBAP or mMeOBAP (compound no. 14 and 15, respectively). The control medium didn't contain any cytokinin. After a culture period of 8 weeks, the number of induced shoots per explant was determined, as well as root number/explant and total root length/explant. The roots were removed and the explants (shoot clusters) were planted in unfertilised peat. After four weeks of acclimatising in a fog unit, root number and root length was determined.

[2] = tested on: Rosa hybrida 'Pailin' explants; test: Early shoot senescence of tissue cultured roses; assay type: in vivo; conditions: 10 μM in medium
Experimental: Rosa hybrida ‘Pailin’ (a cut rose) was cultured in 350 ml vessels with a screw on polycarbonate lid. Each culture vessel contained 100 ml autoclaved medium (120° C., 20 min). The cultures were maintained at 23±2° C. under a 16 h photoperiod at 40 μM m^−2 s^−1 PAR. The basal medium (BMR) contained Murashige and Skoog (1962) macroelements, microelements and vitamins, 36.7 mg/l NaFeEDTA, 50 mg/l NaFeEDDHA, 100 mg/l […] myo-inositol, 30 g/l sucrose, 100 mg/l glycine, 50 mg/l calcium pantothenate, 100 mg/l L-glutamine and 7 g/l agar-agar. This medium was supplemented with 10 μM BA, mT and mMeOBAP. The last 2 cytokinins were filter sterilised and added after autoclaving the medium in the vessels. The control medium didn't contain any cytokinin. After a culture period of 6 weeks, scoring senescence symptoms was started.

[3] = tested on: HOS; test: Calcein AM cytotoxicity, HOS; assay type: cell-based; conditions: Homo sapiens, HOS, 72 h
[4] = tested on: human adult skin fibroblasts; test: Short-term growth of human skin fibroblasts (cell counts, Giemsa); assay type: cell-based
Experimental: (§1) All experiments were performed on early and mid passage cultures (about 20 to 40% lifespan completed) of normal human adult skin fibroblast line; designated ASF-2 & Senetek cell line (about 10-90% lifespan completed); designated as SF20. In order to check the effects of test compounds on senescent cells, late passage cells with more than 95% lifespan completed were used. ASF-2 and SF20 cell lines were established from a mammary skin biopsy obtained from a young, non-smoking and healthy […] at the time of breast reduction operation. Normal culture conditions of medium (DMEM) containing antibiotics, 10% foetal calf serum, and incubation at 37° C. with 95% humidity were used. The effects of the test chemicals were determined in the following conditions:
Short-term growth experiments were performed using 24-well tissue culture plates (growth area 1.9 cm^2). Freshly prepared cell suspensions from mass cultures of ASF-2 cells maintained in our labs were used. About 10,000 cells were seeded into 6 sets of 24-well plates. The cells were allowed to attach and stabilize for 24 hr in normal culture medium to achieve various final concentrations (range 40 to 500 μM). Culture medium was changed with the addition of test chemicals twice a week. The numbers of cells were counted after different days of treatment in 2 wells from each concentration of the test chemical, by following the normal method of cell trypsinization and counting using a Coultercounter. The third well in each category was fixed by cold methanol and stained with Giemsa stain for permanent record and for photography. The experiment was carried on for until the cultures became fully confluent and no further growth was possible.

[5] = tested on: human skin fibroblasts; test: Series of experiments on short-term effects on human skin fibroblasts, conclusion; assay type: cell-based; conditions: para at a dose of 40 μM
Experimental: as §1
The experiments were performed to determine the effects of short-term treatment of ortho-topolin, meta-topolin, and para-topolin on cell attachment, survival, growth, apoptosis, actin cytoskeletal pattern, lysosomal activity, proteasomal activity and morphology of human skin fibroblasts in culture.

[6] = tested on: senescent human skin fibroblasts; test: Numbers of surviving senescent cells (Coulter counter); assay type: cell-based
Experimental: Equal numbers of senescent cells were seeded in separate flasks and were treated with different concentrations of para-topolin. Cell numbers were determined by using a Coulter counter after trpsinization and resuspension of cells after 7 and 14 days of treatment.
Equal numbers of senescent cells were seeded in separate flasks and were treated with different concentrations of ortho-topolin. Cell numbers were determined by using a Coulter counter after trypsinisation and resuspension of cells, after 7 and 14 days of treatment.

[7] = tested on: proteasome; test: Proteasomal chymotrypsin-like activity in cell extracts of treated cells; assay type: cell-based, human; conditions: 40, 80 and 200 μM
Experimental: Chymotrypsin-like activity in cell extracts prepared from treated and untreated cells was determined by in vitro degradation of oligopeptides by the proteasome.

[8] = tested on: human skin fibroblasts; test: Cell attachment of human skin fibroblasts; assay type: cell-based
Experimental: as §1, with “conditions: […]” for “conditions:”

[9] = tested on: senescent human skin fibroblasts; test: Morphology of senescent cells; assay type: cell-based
Experimental: as §1
Senescent human skin fibroblasts were treated with various doses of para-topolin to see if this treatment could reverse age-related alterations in their morphology. […] The cells progressively became heterogeneous with large and flattened appearance.

[10] = tested on: human skin fibroblasts; test: beta-galactosidase staining of treated skin fibroblasts; assay type: cell-based; conditions: short-term growth treatment
[11] = tested on: senescent human skin fibroblasts; test: Actin staining of senescent cells (FITC-Phalloidin); assay type: cell-based; conditions: after 3 days; meta 40 μM
Description: Actin staining: The pattern of cytoskeletal actin staining was studied by staining the cells with florescent ligand FITC-labelled Phalloidin, using a fluorescence microscope

[12] = tested on: human skin fibroblasts; test: Cell survival, MTT assay; assay type: cell-based; conditions: 3 days
Experimental: Cell survival after exposure to various doses was measured with the 3-(4,5 dimethylthiazol-2-yl)-2,5-diphenyltetrazolium bromide (MTT) assay. About 5,000 cells were seeded per well in a 96-well plate 24 h before the experiment. Cells were then treated with various doses of the compound to be tested. The wells were washed in Hank's and new medium was added. After three days, MTT (Sigma, M2128) was added at 0.5 mg/ml in medium. After 4 h, MTT was removed and isopropanol and HCl were added to dissolve the MTT crystals for 12-16 h. The absorbance at 595 nm was measured.

[13] = tested on: lysosomes of fibroblast cells; test: Lysosomal activity, neutral red uptake; assay type: cell-based, human
Experimental: Neutral Red is preferentially taken up into the lysosomes of the cell. Fibroblast cells are maintained in culture and exposed to test compounds over a range of concentrations. The cultures are visually examined after 72 hours, and the number of viable cells and/or the total cell protein content determined, after 72 hours exposure, by the Neutral Red Uptake method. Advantage of Neutral Red assay is that it detects only viable cells. Any chemical having a localized effect upon the lysosomes will, therefore, result in an artificially low (or possibly high) reflection of cell viability and cell number. This factor does, however, make the system useful to detect those compounds which selectively affect the lysosomes, especially when it is used in conjunction with other tests capable of determining cell number.
The NR assay has been applied to evaluation and ranking the cytotoxicity of a spectrum of compounds. Individual wells of a 96-well tissue culture microtiter plate were inoculated with 0.2 ml of the appropriate media containing cells (usually 3×10^3 cells). After 1 to 2 days of incubation, the media were removed and replaced with unamended (control) medium or with medium amended with varied concentrations of the compound to be tested. After 3 days of exposure to the compound, media were removed and replaced with media containing 0.001% NR. The assay plate was then returned to the incubator for another 3 h to allow for uptake of the supravital dye into the lysosomes of viable cells. Thereafter, the media were removed and the cells were rapidly washed with 0.5% formaldehyde-1% CaCl2 followed by 0.2 ml of a solution of 1% acetic acid-50% ethanol to extract the dye from the cells. After 10 min at room temperature and a brief but rapid agitation on a microtiter plate shaker, the plates were transferred to a microplate spectrophotometer equipped with a 540-nm filter to measure the absorbance of the extracted dye.
The toxicities of the various compounds were compared with those of the control cultures by computing the data obtained.

[14] = Ex vitro, four weeks of acclimatising

SMILES: c1ccc(CNc2ncnc3nc[nH]c23)cc1 [BAP, 6-benzylaminopurine, reference compound]
- shoot multiplication and rooting, in words ([1]; 10 μM): high shoot multiplication rate, but the shoots rooted badly
- Root number per plant [1, 14]: 0.6
- Total root length per plant [1, 14]: 1.1 cm
- Flower number per explant ([1]; In vitro, 10 μM, 8 weeks): 0.00
- Number of new shoots per explant ([1]; In vitro, 10 μM, 8 weeks): 3.8
- Root number per explant ([1]; In vitro, 10 μM, 8 weeks): 0.0
- Total root length per explant ([1]; In vitro, 10 μM, 8 weeks): 0.0 cm
- relative number of dead plants in relation to culture time [2]: looks like a sigmoid curve
- IC50 [3]: > 167 µM

SMILES: Oc1ccc(CNc2ncnc3nc[nH]c23)cc1 [para-topolin, 6-(4-hydroxybenzylamino)purine]
- Cell growth (summary) ([4]; 40 μM): not affected
- Cell growth lower ([4]; 40 μM): 10%
- reduction of cell growth ([4]; 80 μM): over 40%
- appearance of dermal cells, microscopic examination (summary) ([4]; 40 and 80 μM): Healthy appearances of the cells were maintained
- Cell growth (summary) ([4]; 80, 200 and 500 μM): reduced
- appearance of dermal cells, microscopic examination (summary) ([4]; 200 and 500 μM): toxic effects with enlargement in cell sizes
- appearance of cells ([4]; 200 and 500 μM, eleven days): large in appearance, irregularly arranged and few in numbers
- dose over which cytotoxicity of cells was seen ([4]; Giemsa pictures after eleven days): > 80 µM
- Cellular growth at higher concentrations ([4]; para 200 to 500 μM after 11 days, ortho 200 and 400 μM after 7 days, meta 400 μM): almost a total inhibition
- conclusion on short-term effects on human skin fibroblasts [5]: beneficial anti-aging effects
- growth of senescent cells ([6]; 200 μM, 7 to 14 days): no further growth of the cells was observed
- numbers of surviving senescent cells ([6]; 7 to 14 days of treatment): tolerant to para-topolin until 80 μM
- proteasomal activity (chymotrypsin-like), removal of oxidized and abnormal proteins [7]: slight improvement; also recorded: observed in a dose dependent manner
- Percent of cells attached, effect in words ([8]; 6 hours, para 40 μM to 1 mM, ortho 40 to 400 μM, meta 40 to 200 μM): not affected to any significant extent
- Overall cell attachment improved (summary) ([8]; para at 40, 80, 100, 160, 250 and 500 μM): 10-40%
- appearance of senescent cells on longer treatment ([9]; 14 days, ortho and meta 80 μM and above): began to shrink and die
- appearance of senescent cells ([9]; after 7 days of treatment (para: 7 days and 14 days; meta: low concentrations)): subtle differences
- number of prematurely senescent cells, beta-galactosidase staining [10]: did not show any increase
- actin staining pattern in senescent cells [11]: no obvious differences
- reduction in cell survival ([12]; 200-500 μM): 15-25%
- dose until which not cytotoxic / no toxic effect on survival (MTT) ([12]; range 0.01-500 μM): 100 µM
- neutral red staining pattern of cells ([13]; 40 μM-500 μM): autophagy
- reduction in the macro-molecular turn over rate ([13]; 80 & 200 μM): 10-15%
